# Test results published in US20240132450A1, “MODULATORS OF G PROTEIN-COUPLED RECEPTOR 88” (ACADIA Pharmaceuticals Inc., priority 2020, published 2024).
# Target: hGPR88 receptor (Homo sapiens, UniProt Q9GZN0)
# Assay: hGPR88-HEK cAMP accumulation assay
# Conditions: GRP88 agonist activity (EC50), HEK-293 cells expressing human recombinant GPR88, forskolin 200 nM, High/Medium/Low bands
# Procedure: Biological Assay 1: hGPR88-HEK cAMP Accumulation Assay
# Cryopreserved vials of HEK-293 cells expressing human recombinant GPR88 receptor are re-suspended in KRH assay buffer and 5 μl of cell solution is suspended in test wells at a seeding density of 2500±500 cells per well using the multidrop to provide a final reaction volume of 10 μl containing 0.5% DMSO. Assay plate is incubated for 30 min at room temperature and the reaction is terminated by addition of 5 μl of each of the cAMP detection reagents of the cAMP Gi kit (Cisbio Bioassays, 62AM9PEJ), diluted in cell lysis buffer, to each well using the multidrop in the following order: first the cAMP-d2 conjugate, then the anti-cAMP cryptate conjugate. […] Raw counts were converted to cAMP concentrations via a standard curve before EC50 and Emax determination. Data is expressed as % decrease in forskolin stimulated cAMP compared to cells treated with vehicle alone in the same buffer and on the same plate.
# Chain of hGPR88 receptor (Q9GZN0 whole entry): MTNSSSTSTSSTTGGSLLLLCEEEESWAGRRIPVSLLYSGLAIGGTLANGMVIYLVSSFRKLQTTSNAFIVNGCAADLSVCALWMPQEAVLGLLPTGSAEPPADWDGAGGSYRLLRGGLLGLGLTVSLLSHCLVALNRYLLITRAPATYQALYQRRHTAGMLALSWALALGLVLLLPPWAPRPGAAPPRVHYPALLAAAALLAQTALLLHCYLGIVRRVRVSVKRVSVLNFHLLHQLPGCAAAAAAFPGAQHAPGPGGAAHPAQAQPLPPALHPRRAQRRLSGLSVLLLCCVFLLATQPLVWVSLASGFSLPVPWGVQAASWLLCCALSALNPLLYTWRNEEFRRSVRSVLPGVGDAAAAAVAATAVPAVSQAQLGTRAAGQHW
row,EC50 [µM],SMILES
1,> 5,"COCc1ccc(-c2ccc(N(C[C@@H](O)[C@@H](C)OC)C(=O)C3CC3c3ccccn3)cc2)cc1 (mixture of isomers) [Example 5, (rac-trans)-N-((2R,3R)-2-hydroxy-3-methoxybutyl)-N-(4′-methoxymethyl)-[1,1′-biphenyl]-4-yl)-2-(pyridin-2-yl)cyclopropane-1-carboxamide]"
2,1 to 5,"CCCc1ccc(C23CC(NC(=O)C4CC4c4ccccn4)(C2)C3)cc1 (racemic) [Example 34, (rac-trans)-N-(3-(4-propylphenyl)bicyclo[1.1.1]pentan-1-yl)-2-(pyridin-2-yl)cyclopropane-1-carboxamide]"
3,1 to 5,"O=C(Nc1ccc(-c2ccc(CN3CCOCC3)cc2)cc1)C1CC1c1ccccn1 (racemic) [Example 37, (1R*,2R*)-N-(4′-(morpholinomethyl)-[1,1′-biphenyl]-4-yl)-2-(pyridin-2-yl)cyclopropane-1-carboxamide]"
4,> 5,"COCc1ccc(-c2ccc3c(c2)CCCN3C(=O)C2CC2c2ccccn2)cc1 (racemic) [Example 43, (6-(4-(methoxymethyl)phenyl)-3,4-dihydroquinolin-1(2H)-yl)((rac-trans)-2-(pyridin-2-yl)cyclopropyl)methanone]"
5,1 to 5,"COCc1ccc(C23CC(NC(=O)C4CC4c4ccccn4)(C2)C3)cc1 (racemic) [Example 44, (rac-trans)-N-(3-(4-(methoxymethyl)phenyl)bicyclo[1.1.1]pentan-1-yl)-2-(pyridin-2-yl)cyclopropane-1-carboxamide]"
6,> 5,"CN(C)Cc1ccc(-c2ccc(NC(=O)C3CC3c3ccccn3)cc2)cc1 (racemic) [Example 48, (rac-trans)-N-(4′-(dimethylamino)methyl)-[1,1′-biphenyl]-4-yl)-2-(pyridin-2-yl)cyclopropane-1-carboxamide]"
7,1 to 5,"COCc1ccc(-c2ccc3c(c2)CCN3C(=O)C2CC2c2ccccn2)cc1 (racemic) [Example 50, (5-(4-(methoxymethyl)phenyl)indolin-1-yl)((rac-trans)-2-(pyridin-2-yl)cyclopropyl)methanone]"
8,> 5,"COCc1ccc(-c2ccc(NC(=O)C3CC3c3ccc(F)cc3)cc2)cc1 (racemic) [Example 54, (rac-trans)-2-(4-fluorophenyl)-N-(4′-(methoxymethyl)-[1,1′-biphenyl]-4-yl)cyclopropane-1-carboxamide]"
9,> 5,"COCc1ccc(-c2ccc(NC(=O)C3CC3c3ccccc3)cc2)cc1 (racemic) [Example 61, (rac-trans)-N-(4′-(methoxymethyl)-[1,1′-biphenyl]-4-yl)-2-phenylcyclopropane-1-carboxamide]"
10,> 5,"COCc1ccc(-c2ccc(N(C)C(=O)C3CC3c3ccccn3)cc2)cc1 (racemic) [Example 73, (rac-trans)-N-(4′-(methoxymethyl)-[1,1′-biphenyl]-4-yl)-N-methyl-2-(pyridin-2-yl)cyclopropane-1-carboxamide]"
11,> 5,"CN(C)Cc1ccc(-c2ccc(NC(=O)C3CC3c3ccccn3)nc2)cc1 (racemic) [Example 82, (rac-trans)-N-(5-(4-((dimethylamino)methyl)phenyl)pyridin-2-yl)-2-(pyridin-2-yl)cyclopropane-1-carboxamide]"
12,1 to 5,"O=C(Nc1ccc(-c2ccc(CN3CCOCC3)cc2)cn1)C1CC1c1ccccn1 (racemic) [Example 83, (rac-trans)-N-(5-(4-(morpholinomethyl)phenyl)pyridin-2-yl)-2-(pyridin-2-yl)cyclopropane-1-carboxamide]"
13,1 to 5,"CC(C)Oc1ccc(-c2ccc(NC(=O)C3CC3c3ccccn3)cc2)cc1 (racemic) [Example 90, (rac-trans)-N-(4′-isopropoxy-[1,1′-biphenyl]-4-yl)-2-(pyridin-2-yl)cyclopropane-1-carboxamide]"
14,1 to 5,"CC(C)Oc1ccc(-c2ccc(NC(=O)C3CC3c3ccccn3)cc2)cn1 (racemic) [Example 109, (rac-trans)-N-(4-(6-isopropoxypyridin-3-yl)phenyl)-2-(pyridin-2-yl) cyclopropane-1-carboxamide]"
15,1 to 5,"COCc1ccc(C23CC(NC(=O)C4CC4c4ccccn4)(C2)C3)cc1 (racemic) [Example 110, (rac-trans)-N-(3-(4-(methoxymethyl)phenyl)bicyclo[1.1.1]pentan-1-yl)-2-(pyridin-2-yl)cyclopropane-1-carboxamide]"
16,> 5,"COCc1ccc(C23CC(NC(=O)C4CC4c4ccccn4)(C2)C3)cc1 (racemic) [Example 112, (rac-trans)-N-(3-(4-(methoxymethyl)phenyl)bicyclo[1.1.1]pentan-1-yl)-2-(pyridin-2-yl)cyclopropane-1-carboxamide]"
17,1 to 5,"COCc1ccc(-c2ccc(NC(=O)C3CC3c3ccccn3)nc2)cc1 (racemic) [Example 120, (rac-trans)-N-(5-(4-(methoxymethyl)phenyl)pyridin-2-yl)-2-(pyridin-2-yl)cyclopropane-1-carboxamide]"
18,> 5,"COCc1ccc(-c2ccc(NC(=O)C3CC3c3ccccn3)cc2)cc1 (single isomer, unassigned) [Example 19, N-(4′-(methoxymethyl)-[1,1′-biphenyl]-4-yl)-2-(pyridin-2-yl)cyclopropane-1-carboxamide]"
19,1 to 5,"O=C(Nc1ccc(-c2ccc(CN3CCOCC3)cc2)cc1)C1CC1c1ccccn1 (single isomer, unassigned) [Example 77, (1R*,2R*)-N-(4′-(morpholinomethyl)-[1,1′-biphenyl]-4-yl)-2-(pyridin-2-yl)cyclopropane-1-carboxamide]"
20,1 to 5,"CC(c1ccc(-c2ccc(NC(=O)C(C)(C)Oc3ccc(F)cc3)cc2)cc1)N1CCOCC1 (single isomer, unassigned) [Example 122, 2-(4-fluorophenoxy)-2-methyl-N-(4′-(1-morpholinoethyl)-[1,1′-biphenyl]-4-yl)propanamide]"
21,< 1,"CC(c1ccc(-c2ccc(NC(=O)C(C)(C)Oc3ccc(F)cc3)cc2)cc1)N1CCOCC1 (single isomer, unassigned) [Example 123, 2-(4-fluorophenoxy)-2-methyl-N-(4′-(1-morpholinoethyl)-[1,1′-biphenyl]-4-yl)propanamide]"
22,> 5,"O=C(Nc1ccc(-c2ccc(OC3CC3)cc2)cc1)C1CC1c1ccccn1 (single isomer, unassigned) [Example 130, N-(4′-cyclopropoxy-[1,1′-biphenyl]-4-yl)-2-(pyridin-2-yl)cyclopropane-1-carboxamide]"
23,1 to 5,"CC(C)Oc1ccc(-c2ccc(NC(=O)C3CC3c3ccccn3)cc2)cn1 (single isomer, unassigned) [Example 133, N-(4-(6-isopropoxypyridin-3-yl)phenyl)-2-(pyridin-2-yl)cyclopropane-1-carboxamide]"
24,> 5,"CC(C)Oc1ccc(-c2ccc(NC(=O)C3CC3c3ccccn3)cc2)cn1 (single isomer, unassigned) [Example 134, N-(4-(6-isopropoxypyridin-3-yl)phenyl)-2-(pyridin-2-yl)cyclopropane-1-carboxamide]"
25,> 5,COCc1ccc(-c2ccc(NC(=O)C(C)Oc3ccc(F)cc3)cc2)cc1 (centres unmarked) [Example 6]
26,> 5,"CC(C)(Oc1ccc(F)cc1)C(=O)Nc1ccc(-c2ccc(C(F)(F)F)cc2)cc1 [Example 10, 2-(4-fluorophenoxy)-2-methyl-N-(4′-(trifluoromethyl)-[1,1′-biphenyl]-4-yl)propenamide]"
